Laboratory results reported in patent US20200377599A1, “COMPOSITIONS AND METHODS FOR TREATING CANCER” (BETH ISRAEL DEACONESS MEDICAL CENTER, INC., priority 2017, published 2020).
Where a SMILES comes first, the peptide text is derived from it. The star is where a group is joined. Cbz = O=C(OCc1ccccc1)*

How the values were obtained:
[1] = test system: PD-L1 protein abundance in MC38, CT26, 4T1 and B16-F10 cells; test: Immunoblot of PD-L1 in mouse tumor cell lines arrested in M phase; type: cell-based; details: MC38, CT26, 4T1 and B16-F10 cells arrested in M phase; treated 20 hours
Excerpt: FIG. 1A, FIG. 1B, FIG. 1C, FIG. 1D, FIG. 1E, FIG. 1F, FIG. 1G, and FIG. 1H are images showing the protein abundance of PD-L1 as the protein fluctuates during cell cycle progression. […] FIG. 1B are the cell-cycle profiles in FIG. 1A, which were monitored by fluorescence-activated cell sorting (FACS) analysis of DNA content. […] FIG. 1E and FIG. 1F show IB analysis of WCL derived from MC38 tumor cells, which are derived from colon adenocarcinoma, or CT26 mouse tumor cells, which are colon carcinoma cells, treated with the indicated concentration of nocodazole for 20 hours before harvesting. FIG. 1G and FIG. 1H show IB analysis of WCL derived from 4T1 tumor cells, which are breast cancer cells, or CT26 mouse tumor cells treated with indicated concentration of taxol for 20 hours before harvesting. […]
(§1) Cells were lysed in EBC buffer (50 mM Tris pH 7.5, 120 mM NaCl, 0.5% NP-40) supplemented with protease inhibitors (Complete Mini, Roche) and phosphatase inhibitors (phosphatase inhibitor cocktail set I and II, Calbiochem). Protein concentrations were measured by the Beckman Coulter DU-800 spectrophotometer using the Bio-Rad protein assay reagent as described previously (Gao et al. Nat Cell Biol 11, 397-408 (2009)). […]

[2] = test system: PD-L1 protein in C42 cells; test: Immunoblot of PD-L1 in C42 cells treated with proteasome or cullin E3 ligase inhibitor; type: cell-based; details: MG132 10 μM or MLN4924 1 μM, 12 hours
Protocol: FIG. 3K is a graph showing the excised tumor mass (mg) of B16-F10 tumors ectopically expressing SPOP Wild Type (WT) or SPOP-F102C mutant. The B16-F10 tumors were harvested after euthanizing the mice and tumor weight was recorded at the time of sacrifice. Data are represented as mean±S.D., N=5, and *p<0.05 (Student's t-test). FIG. 3L and FIG. 3M are graphs showing the relative cell surface PD-L1 expression and absolute CD3^+ T-cell populations from the isolated tumor-infiltrating lymphocytes in B16-F10 xenografted tumors ectopically expressing SPOP-WT or the SPOP-F102C mutant as determined by FACS analysis. Data are represented as mean±S.D., N=5, and *p<0.05 (Student's t-test). […] FIG. 3O and FIG. 3P are graphs showing the quantification of IHC analysis of PD-L1 protein levels and CD8^+ T cells in 82 cases of SPOP wild-type versus 15 cases of SPOP-mutant human prostate tumor specimens. **p<0.01 (Mann-Whitney test for PD-L1); *p<0.05 (Student's t-test for CD8).
as §1

Cdh1 = biological target: T1, Cdh1 (UniProt Q9UM11 1-496, limits assumed); test: co-immunoprecipitation from transfected 293T cells (FIG. 4C)
T1 construct: Expressed in 293T cells or endogenous in MDA-MB-231 and HeLa cells; also called HA-Cdh1; APC/C E3 ligase adaptor protein Cdh1
Protocol: Cells were treated with 30 μM MG132 for 6 hours before harvesting. […] FIG. 4F are in vitro kinase assays showing that cyclin D1/CDK4 phosphorylates SPOP at Ser6, not Ser222. FIG. 4G and FIG. 4H show IB analysis of IP and WCL derived from 293T cells transfected with indicated constructs and treated with MG132 (10 μM) for 12 hours before harvesting. […] Tumor volume were measured every three days and plotted individually. […]

SPOP-S6A mutant = biological target: T2, SPOP-S6A mutant (UniProt O43791 1-374); test: co-immunoprecipitation from transfected 293T cells (FIG. 4H)
T2 construct: also called Flag-SPOP S6A; phosphorylation-deficient S6A mutant of SPOP

PD-L1 = biological target: T3, PD-L1 (human, UniProt Q9NZQ7 19-290, limits assumed); test: co-immunoprecipitation from transfected 293T cells (FIG. 9E)
T3 construct: also called HA-PD-L1; PD-L1 WT
T3 sequence (Q9NZQ7 19-290 limits assumed): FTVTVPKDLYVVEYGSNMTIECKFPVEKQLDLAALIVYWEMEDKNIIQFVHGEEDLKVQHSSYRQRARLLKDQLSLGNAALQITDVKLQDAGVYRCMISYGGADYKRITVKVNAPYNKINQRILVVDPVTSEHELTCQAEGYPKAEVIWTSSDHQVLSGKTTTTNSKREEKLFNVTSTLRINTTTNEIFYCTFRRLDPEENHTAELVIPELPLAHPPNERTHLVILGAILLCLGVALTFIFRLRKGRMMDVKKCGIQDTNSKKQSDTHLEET

T1 sequence (Q9UM11 whole entry): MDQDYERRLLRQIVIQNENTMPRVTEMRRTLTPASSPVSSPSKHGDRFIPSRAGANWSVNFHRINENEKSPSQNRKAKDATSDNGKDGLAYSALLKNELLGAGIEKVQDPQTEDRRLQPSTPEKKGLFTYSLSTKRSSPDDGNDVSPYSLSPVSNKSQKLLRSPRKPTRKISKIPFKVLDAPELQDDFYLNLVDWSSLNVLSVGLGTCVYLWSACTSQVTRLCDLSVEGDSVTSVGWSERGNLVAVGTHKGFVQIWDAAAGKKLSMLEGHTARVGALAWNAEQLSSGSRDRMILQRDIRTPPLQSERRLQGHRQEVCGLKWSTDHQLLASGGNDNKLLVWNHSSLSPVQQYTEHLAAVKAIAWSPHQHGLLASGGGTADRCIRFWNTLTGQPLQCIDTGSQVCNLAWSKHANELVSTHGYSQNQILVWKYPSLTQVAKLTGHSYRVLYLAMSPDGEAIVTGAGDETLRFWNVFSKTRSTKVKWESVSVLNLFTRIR

**Q.** `COC(=O)Nc1nc2ccc(C(=O)c3cccs3)cc2[nH]1` [nocodazole] was tested. Which PD-L1 protein abundance [1] did it give?
**A.** Elevated PD-L1 protein abundance

**Q.** For `CC(C)C[C@@H](C=O)NC(=O)[C@H](CC(C)C)NC(=O)[C@H](CC(C)C)NC(=O)OCc1ccccc1` [MG132] (Cbz-Leu-Leu-Leu-aldehyde), which PD-L1 protein stability [2] is on record?
**A.** stabilized PD-L1 protein

**Q.** With `NS(=O)(=O)OC[C@@H]1C[C@@H](n2ccc3c(N[C@H]4CCc5ccccc54)ncnc32)C[C@@H]1O` [MLN4924] as the molecule, how does the PD-L1 protein stability [2] read?
**A.** stabilized PD-L1 protein

**Q.** `CC(=O)O[C@H]1C(=O)[C@@]2(C)[C@H]([C@H](OC(=O)c3ccccc3)[C@]3(O)C[C@H](OC(=O)[C@H](O)[C@@H](NC(=O)c4ccccc4)c4ccccc4)C(C)=C1C3(C)C)[C@]1(OC(C)=O)CO[C@@H]1C[C@@H]2O` [Taxol] was tested. Which PD-L1 protein abundance [1] did it give?
**A.** Elevated PD-L1 protein abundance

B1: Flag-SPOP with delta D-Box (RxxL) (other, UniProt O43791 1-374, looked up)
chain: MSRVPSPPPPAEMSSGPVAESWCYTQIKVVKFSYMWTINNFSFCREEMGEVIKSSTFSSGANDKLKWCLRVNPKGLDEESKDYLSLYLLLVSCPKSEVRAKFKFSILNAKGEETKAMESQRAYRFVQGKDWGFKKFIRLDEANGLLPDDKLTLFCEVSVVQDSVNISGQNTMNMVKVPECRLADELGGLWENSRFTDCCLCVAGQEFQAHKAILAARSPVFSAMFEHEMEESKKNRVEINDVEPEVFKEMMCFIYTGKAPNLDKMADDLLAAADKYALERLKVMCEDALCSNLSVENAAEILILADLHSADQLKTQAVDFINYHASDVLETSGWKSMVVSHPHLVAEAYRSLASAQCPFLGPPRKRLKQS
notes: also called SPOP deletion of RxxL mutant; SPOP D-box deletion
**Q.** Does B1 bind (Cdh1)?
**A.** no binding

B2: 14-3-3γ (other, UniProt P61981 1-247, looked up)
chain: MVDREQLVQKARLAEQAERYDDMAAAMKNVTELNEPLSNEERNLLSVAYKNVVGARRSSWRVISSIEQKTSADGNEKKIEMVRAYREKIEKELEAVCQDVLSLLDNYLIKNCSETQYESKVFYLKMKGDYYRYLAEVATGEKRATVVESSEKAYSEAHEISKEHMQPTHPIRLGLALNYSVFYYEIQNAPEQACHLAKTAFDDAIAELDTLNEDSYKDSTLIMQLLRDNLTLWTSDQQDDDGGEGNN
notes: One of the HA-14-3-3 isoform constructs; also called HA-14-3-3γ
**Q.** Does B2 bind (SPOP-S6A mutant)?
**A.** no binding

B3: SPOP delta MATH (other, UniProt O43791 1-374, looked up)
chain: MSRVPSPPPPAEMSSGPVAESWCYTQIKVVSVVQDSVNISGQNTMNMVKVPECRLADELGGLWENSRFTDCCLCVAGQEFQAHKAILAARSPVFSAMFEHEMEESKKNRVEINDVEPEVFKEMMCFIYTGKAPNLDKMADDLLAAADKYALERLKVMCEDALCSNLSVENAAEILILADLHSADQLKTQAVDFINYHASDVLETSGWKSMVVSHPHLVAEAYRSLASAQCPFLGPPRKRLKQS
notes: also called SPOP with the MATH domain deleted; Flag-tagged SPOP delta MATH
**Q.** Does B3 bind (PD-L1)?
**A.** no binding
